# Legend:
# Format in all cases: cell-based
# murine CCR2 [1] = target: T1, murine CCR2 (Mus musculus, UniProt P51683); experiment: Functional β-arrestin recruiting test with murine MCP-1 (B-2b); details: U2OS β-arrestin cell line transfected with murine CCR2; agonist murine MCP-1
# T1 construct: host or cells: U2OS β-arrestin cell line
# Experimental: (§1) The antagonistic action of test substances on CCR2 was determined in a β-arrestin test. The PathHunter β-arrestin GPCR test system (DiscoveRx Corporation, Ltd.) is a cell-based functional method for detecting binding of β-arrestin to an activated receptor. The molecular basis is a β-galactosidase complementation measured by the enzymatic conversion of a chemiluminescent substrate. The test cell used was a U2OS β-arrestin cell line transfected with murine CCR2 (93-0543C3, DiscoveRx Corporation, Ltd.).
# (§2) The test substances were dissolved in dimethyl sulphoxide (DMSO) at a concentration of 10 mM and serially diluted with DMSO in steps of 1:3.16 for a 10-point dose/activity analysis. According to the desired test concentrations, the substances were pre-diluted in Tyrode with 2 mM CaCl2 and 0.05% BSA.
# (§3) The cells, cultivated in MEM Eagle (supplemented with 10% FCS, 50 U/ml of penicillin, 50 μg/ml of streptomycin, 250 μg/ml of hygromycin and 500 μg/ml of geniticin), were sown at 2000 cells/25 μl in 384 well, μCLEAR/black cell culture plates from Greiner (#781092) and incubated at 37° C. for 24 h. The sowing medium consisted of Opti-MEM (supplemented with 1% FCS, 50 U/ml of penicillin and 50 μg/ml of streptomycin). The cells were pre-incubated for 10 min with 10 μl of the test substances diluted in buffer, and 10 μl of agonist solution [human MCP-1 (PeproTech, #300-04) in Tyrode with 0.05% BSA] were then added. The human MCP-1 was employed at the concentration which corresponds to the EC50 which had been determined in a preliminary test (usually about 3 nM). After 90 min of incubation at 37° C., the solution was removed, and recruitment of β-arrestin to CCR2 was detected with the aid of the PathHunter detection reagent (93-001, DiscoveRx Corporation, Ltd.) according to the instructions of the manufacturer. Luminescence was measured after an incubation time of 60 min using a proprietary luminescence imaging measuring instrument. The molar concentration of the test substance which caused 50% inhibition of the MCP-1 effect (IC50) was determined using a 4-parameter logistic function (Hill function).
# The test was carried out in a manner identical to that described above under B-2a, but using murine MCP-1 (PeproTech, #250-10) as agonist.
# human CCR2 = target: T2, human CCR2 (Homo sapiens, UniProt P41597); experiment: Functional Ca2+ release test (B-1); details: Chem-1 cell line transfected with human CCR2, inhibition of MCP-1 effect, MCP-1 at EC50 (about 5 nM), Fluo-4
# T2 construct: host or cells: Chem-1 cell line
# T2 sequence (P41597 1-360 isoform P41597-2): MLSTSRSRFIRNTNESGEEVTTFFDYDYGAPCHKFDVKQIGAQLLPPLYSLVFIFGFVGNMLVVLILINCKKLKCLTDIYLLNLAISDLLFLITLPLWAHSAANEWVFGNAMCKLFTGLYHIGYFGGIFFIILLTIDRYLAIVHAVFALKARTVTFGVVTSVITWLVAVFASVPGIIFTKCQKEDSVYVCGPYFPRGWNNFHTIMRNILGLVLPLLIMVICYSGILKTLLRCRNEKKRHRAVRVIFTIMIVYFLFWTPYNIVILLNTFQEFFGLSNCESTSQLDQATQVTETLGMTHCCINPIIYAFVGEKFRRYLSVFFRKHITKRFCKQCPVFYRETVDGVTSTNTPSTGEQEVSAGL
# Experimental: The antagonistic action of test substances on CCR2 was determined in a functional Ca^2+ release test. Binding of CCL2/MCP-1 to CCR2 leads to a change in the conformation of the receptor resulting in Gi/Gq protein activation and intracellular signal cascade. This involves, inter alia, an intracellular Ca^2+ release. The test cell used was a Chem-1 cell line transfected with human CCR2 (ChemiSCREEN™ CCR2B Calcium-Optimized FLIPR Cell Line, Merck Millipore).
# as §2
# The cells, cultivated in DMEM high glucose [supplemented with 10% FCS, 1 mM pyruvate, 15 mM HEPES, 500 μg/ml geniticin and non-essential amino acids (NEAA)], were sown at 5000 cells/25 μl in 384 well, μCLEAR/black cell culture plates from Greiner (#781092) and incubated at 37° C. for 24 h. The sowing medium consisted of DMEM high glucose [supplemented with 5% FCS, 1 mM pyruvate, 15 mM HEPES, 50 U/ml penicillin, 50 μg/ml streptomycin and non-essential amino acids (NEAA)]. The medium was then removed and the cells were charged for 60 min at 37° C. with Fluo-4 dye [25 μl Tyrode with 3 μM Fluo-4 AM (1 mM DMSO stock solution), 0.4 mg/ml Brilliant Black, 2.5 mM probenicid, 0.03% Pluronic F-127]. The cells were pre-incubated for 10 min with 10 μl of the test substances diluted in buffer, and 20 μl of agonist solution (MCP-1 in Tyrode with 0.05% BSA) were then added. MCP-1 was employed at the concentration which corresponds to the EC50 which had been determined in a preliminary test (usually about 5 nM). Ca^2+ release was monitored over a period of 120 s in 1 s increments in a proprietary fluorescence imaging reader. The molar concentration of the test substance which caused 50% inhibition of the MCP-1 effect (IC50) was determined using a 4-parameter logistic function (Hill function).
# murine CCR2 [2] = target: T1, murine CCR2; experiment: Functional β-arrestin recruiting test with human MCP-1 (B-2a); details: U2OS β-arrestin cell line transfected with murine CCR2; agonist human MCP-1 at EC50 (about 3 nM)
# Experimental: as §1, §2, §3
# T1 sequence (P51683 whole entry): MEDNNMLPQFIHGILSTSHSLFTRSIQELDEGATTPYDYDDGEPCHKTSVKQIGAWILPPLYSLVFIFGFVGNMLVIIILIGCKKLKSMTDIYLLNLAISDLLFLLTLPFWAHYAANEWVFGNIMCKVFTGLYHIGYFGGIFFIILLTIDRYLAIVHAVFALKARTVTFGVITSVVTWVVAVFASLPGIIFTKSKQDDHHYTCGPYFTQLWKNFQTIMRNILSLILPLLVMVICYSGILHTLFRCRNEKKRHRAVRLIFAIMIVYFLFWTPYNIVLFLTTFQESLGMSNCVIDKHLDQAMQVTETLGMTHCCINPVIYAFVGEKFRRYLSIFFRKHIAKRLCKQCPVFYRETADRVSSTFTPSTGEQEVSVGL
Compound,IC50 (murine CCR2 [1]) [nM],IC50 (human CCR2) [nM],IC50 (murine CCR2 [2]) [nM]
Nc1nc(C(F)(F)F)c(S(=O)(=O)c2ccc(Cl)c(Cl)c2)c(=O)[nH]1 [Example 63],2200,326,–
Nc1nc(C(F)(F)F)c(Oc2ccc(C(F)(F)F)cc2)c(=O)[nH]1 [Example 74],4160,50,–
Nc1nc(C(F)(F)F)c(Oc2ccc(Cl)cc2)c(=O)[nH]1 [Example 73],2310,38,–
"Nc1nc(C(F)(F)F)c([S+]([O-])c2ccc(Cl)c(C(F)(F)F)c2)c(=O)[nH]1 (centres unmarked) [Example 60, 2-Amino-5-{[4-chloro-3-(trifluoromethyl)phenyl]sulphinyl}-6-(trifluoromethyl)pyrimidin-4(3H)-one]",1430,117,–
Nc1nc(C(F)(F)F)c([S+]([O-])c2ccc(Cl)c(Cl)c2)c(=O)[nH]1 (centres unmarked) [Example 62],1340,542,–
Nc1nc(C(F)(F)F)c(Oc2cccc(C(F)(F)F)c2)c(=O)[nH]1 [Example 75],9490,21,–
Nc1nc(C(F)(F)F)c(Cc2cnc(Cl)c(Cl)c2)c(=O)[nH]1 [Example 59],7280,11,–

# Continued, values first:
IC50 (murine CCR2 [1]) [nM],IC50 (human CCR2) [nM],IC50 (murine CCR2 [2]) [nM],Compound
280,3.4,49,"Nc1nc(C(F)(F)F)c(Oc2ccc(Cl)c(Cl)c2)c(=O)[nH]1 [Example 3, 2-Amino-5-(3,4-dichlorophenoxy)-6-(trifluoromethyl)pyrimidin-4(3H)-one]"
2700,13,–,"CCNc1nc(C(F)(F)F)c(Oc2ccc(Cl)c(Cl)c2)c(=O)[nH]1 [Example 64, 5-(3,4-Dichlorophenoxy)-2-(ethylamino)-6-(trifluoromethyl)pyrimidin-4(3H)-one]"
2270,1.8,–,Nc1nc(C(F)(F)F)c(Oc2ccc(Cl)c(OC(F)(F)F)c2)c(=O)[nH]1 [Example 57]
312,19,200,"Nc1nc(C(F)(F)F)c(Cc2ccc(Cl)c(Cl)c2)c(=O)[nH]1 [Example 1, 2-Amino-5-(3,4-dichlorobenzyl)-6-(trifluoromethyl)pyrimidin-4(3H)-one]"
69,3.3,23,"Nc1nc(C(F)(F)F)c(Oc2ccc(Cl)c(C(F)(F)F)c2)c(=O)[nH]1 [Example 2, 2-Amino-5-[4-chloro-3-(trifluoromethyl)phenoxy]-6-(trifluoromethyl)pyrimidin-4(3H)-one]"
1720,2.4,–,Cc1ccc(Oc2c(C(F)(F)F)nc(N)[nH]c2=O)cc1Cl [Example 71]
